Experimental data taken from US11963961B2, “Combination therapy comprising an ACC inhibitor” (Gilead Sciences, Inc., priority 2017, dated 2024).

How the values were obtained:
Format in all cases: in vivo, human
[1] = tested on: non-cirrhotic subjects with NASH; test: Phase 2 trial of Compound 1 in NASH: acylcarnitine species by UHPLC-MS
Method: Methods: In this double-blind, placebo-controlled trial, 126 non-cirrhotic subjects with NASH diagnosed noninvasively by MRI proton density fat fraction (PDFF) ≥8% and liver stiffness ≥2.5 kPa by MR elastography (MRE), or historical liver biopsy consistent with NASH and stage 1 to 3 fibrosis, were randomized 2:2:1 to receive Compound 1 20 mg, Compound 1 5 mg, or placebo orally QD for 12 weeks ([…]). Centrally-read MRI-PDFF and MRE, and FibroScan and serum markers of fibrosis were measured at baseline and […]. In some subjects, liver stiffness and hepatic fat content by Controlled Attenuation Parameter (CAP) were assessed using transient elastography (FibroScan®; Echosens, Paris, France) at baseline (i.e. week 0) and week 12. Acylcarnitine species measurements were performed with Ultrahigh Performance Liquid Chromatography-Tandem Mass Spectroscopy (UHPLC-MS; Waters Acquity UHPLC, Waters Corporation, Milford, MA USA) and Hybrid Quadrupole-Orbitrap mass spectometer (Q-Exactive Thermo Fischer Scientific, Waltham, MA, USA) platforms in electrospray ionisation-positive and -negative modes as known.

[2] = tested on: non-cirrhotic subjects with NASH; test: Phase 2 trial of Compound 1 in NASH: standard lipid tests and NMR LipoProfile lipoproteins in fasting serum; conditions: for HDL-P (total HDL particles), median / HDL-C, median / VLDL-P (total VLDL particles), median / LDL-C, median / TG, median / TC, median / LDL-P (total LDL particles), median: Compound 1 20 mg daily; for HDL-P (total HDL particles), median: BL 30; for HDL-C, median: BL 42; for VLDL-P (total VLDL particles), median: BL 53; for LDL-C, median: BL 99; for TG, median: BL 160; for TC, median: BL 179; for LDL-P (total LDL particles), median: BL 1397
Method: (§1) Methods: In this double-blind, placebo-controlled trial, 126 non-cirrhotic subjects with NASH diagnosed noninvasively by MRI proton density fat fraction (PDFF) ≥8% and liver stiffness ≥2.5 kPa by MR elastography (MRE), or historical liver biopsy consistent with NASH and stage 1 to 3 fibrosis, were randomized 2:2:1 to receive Compound 1 20 mg, Compound 1 5 mg, or placebo orally QD for 12 weeks (W12). Centrally-read MRI-PDFF and MRE, and FibroScan and serum markers of fibrosis were measured at baseline and W12. In some subjects, liver stiffness and hepatic fat content by Controlled Attenuation Parameter (CAP) were assessed using transient elastography (FibroScan®; Echosens, Paris, France) at baseline (i.e. week 0) and week 12.
In addition to standard lipid tests (serum triglycerides (“TG”), total cholesterol (“TC”), low density lipoprotein cholesterol (“LDL-C”), and high density lipoprotein cholesterol (“HDL-C”), lipoproteins also were measured by nuclear magnetic resonance spectroscopy (NMR LipoProfile®, LabCorp) in fasting serum samples at baseline (“BL”), week 1 (W1), week 4 (W4), and W12. Changes from BL in Compound 1-treated subjects were evaluated using Wilcoxon sign-rank tests and comparisons vs placebo using Wilcoxon rank-sum tests (all with Bonferroni adjustment).

[3] = tested on: non-cirrhotic subjects with NASH; test: Phase 2 randomized placebo-controlled trial of Compound 1 in NASH: imaging, liver biochemistry, serum fibrosis markers, tolerability; conditions: for Liver stiffness by FibroScan, median relative change from baseline: W12, n = 40; for Hyaluronic acid, median relative change from baseline / PIII-NP, median relative change from baseline / TIMP-1, median relative change from baseline: W12, serum
Method: as §1, with “([…]).” for “(W12).”, “[…].” for “W12.”

[4] = Compound 1 5 mg, PDFF Nonresponders
[5] = Compound 1 5 mg, PDFF Responders
[6] = Compound 1 20 mg, PDFF Nonresponders
[7] = Compound 1 20 mg, PDFF Responders
[8] = Compound 1 5 mg orally QD, W12, n = 47
[9] = Compound 1 20 mg orally QD, W12, n = 46
[10] = Compound 1 20 mg, 5 mg, placebo, W12

COc1ccccc1[C@H](Cn1c(=O)n(C(C)(C)C(=O)O)c(=O)c2c(C)c(-c3ncco3)sc21)OC1CCOCC1 [Compound 1, (R)-2-(1-(2-(2-methoxyphenyl)-2-((tetrahydro-2H-pyran-4-yl)oxy)ethyl)-5-methyl-6-(oxazol-2-yl)-2,4-dioxo-1,2-dihydrothieno[2,3-d]pyrimidin-3(4H)-yl)-2-methylpropanoic acid]
Acylcarnitine species compared according to PDFF response ([1]; Compound 1 5 mg): minimal changes
3-hydroxybutyrylcarnitine (1), median % change from baseline [1, 4]: −4.08%
5-dodecenoylcarnitine (C12:1), median % change from baseline [1, 4]: 15.43%
laurylcarnitine (C12), median % change from baseline [1, 4]: 15.23%
linolenoylcarnitine (C18:3), median % change from baseline [1, 4]: −23.55%
myristoleoylcarnitine (C14:1), median % change from baseline [1, 4]: 25.74%
myristoylcarnitine (C14), median % change from baseline [1, 4]: 12.05%
octadecenedioylcarnitine (C18:1-DC), median % change from baseline [1, 4]: 0%
palmitoleoylcarnitine (C16:1), median % change from baseline [1, 4]: 18.13%
3-hydroxybutyrylcarnitine (1), median % change from baseline [1, 5]: −18.06%
5-dodecenoylcarnitine (C12:1), median % change from baseline [1, 5]: 2.08%
laurylcarnitine (C12), median % change from baseline [1, 5]: 1.99%
linolenoylcarnitine (C18:3), median % change from baseline [1, 5]: 6.49%
myristoleoylcarnitine (C14:1), median % change from baseline [1, 5]: −4.71%
myristoylcarnitine (C14), median % change from baseline [1, 5]: −7.50%
octadecenedioylcarnitine (C18:1-DC), median % change from baseline [1, 5]: 33.24%
palmitoleoylcarnitine (C16:1), median % change from baseline [1, 5]: −0.06%
3-hydroxybutyrylcarnitine (1), median % change from baseline [1, 6]: 34.27%
5-dodecenoylcarnitine (C12:1), median % change from baseline [1, 6]: 58.85%
laurylcarnitine (C12), median % change from baseline [1, 6]: 36.72%
linolenoylcarnitine (C18:3), median % change from baseline [1, 6]: 20.43%
myristoleoylcarnitine (C14:1), median % change from baseline [1, 6]: 22.42%
myristoylcarnitine (C14), median % change from baseline [1, 6]: 23.92%
octadecenedioylcarnitine (C18:1-DC), median % change from baseline [1, 6]: 36.38%
palmitoleoylcarnitine (C16:1), median % change from baseline [1, 6]: 31.63%
3-hydroxybutyrylcarnitine (1), median % change from baseline [1, 7]: −13.99%
5-dodecenoylcarnitine (C12:1), median % change from baseline [1, 7]: −12.39%
laurylcarnitine (C12), median % change from baseline [1, 7]: −3.23%
linolenoylcarnitine (C18:3), median % change from baseline [1, 7]: −17.84%
myristoleoylcarnitine (C14:1), median % change from baseline [1, 7]: −7.22%
myristoylcarnitine (C14), median % change from baseline [1, 7]: −19.99%
octadecenedioylcarnitine (C18:1-DC), median % change from baseline [1, 7]: −11.01%
palmitoleoylcarnitine (C16:1), median % change from baseline [1, 7]: −9.82%
Multiple long and medium-chain acylcarnitine species, PDFF response versus no PDFF response ([1]; Compound 1 20 mg, before administration of the next daily dose): significantly reduced
Asymptomatic Grade 3 or 4 TG elevations (>500 mg/dL), number of subjects ([2]; Compound 1 5 mg): 9 subjects
Median relative change in triglycerides (TG) ([2]; Compound 1 5 mg, W12): +13%
Asymptomatic Grade 3 or 4 TG elevations (>500 mg/dL), number of subjects ([2]; Compound 1 20 mg): 7 subjects
HDL-P (total HDL particles), median ([2]; W1): 30 µmol/L
HDL-C, median ([2]; W1): 39 mg/dL
VLDL-P (total VLDL particles), median ([2]; W1): 72 nmol/L
LDL-C, median ([2]; W1): 102 mg/dL
TG, median ([2]; W1): 191 mg/dL
TC, median ([2]; W1): 192 mg/dL
LDL-P (total LDL particles), median ([2]; W1): 1260 nM
HDL-P (total HDL particles), median ([2]; W4): 30 µmol/L
HDL-C, median ([2]; W4): 39 mg/dL
VLDL-P (total VLDL particles), median ([2]; W4): 52 nmol/L
LDL-C, median ([2]; W4): 96 mg/dL
TG, median ([2]; W4): 188 mg/dL
TC, median ([2]; W4): 184 mg/dL
LDL-P (total LDL particles), median ([2]; W4): 1360 nM
HDL-P (total HDL particles), median ([2]; W12): 30 µmol/L
HDL-C, median ([2]; W12): 42 mg/dL
VLDL-P (total VLDL particles), median ([2]; W12): 52 nmol/L
LDL-C, median ([2]; W12): 99 mg/dL
TG, median ([2]; W12): 177 mg/dL
TC, median ([2]; W12): 182 mg/dL
LDL-P (total LDL particles), median ([2]; W12): 1230 nM
Changes in glucose, insulin, or HbA1c compared to placebo ([2]; Compound 1 20 mg or 5 mg): no significant changes
Median relative change in triglycerides (TG) ([2]; Compound 1 20 mg, W12): +11%
Changes from baseline in HDL-C, TC, and LDL-C ([2]; Compound 1-treated subjects, W12): not significant
Median TG increase ([2]; Compound 1-treated subjects, W12, IQR (−6, 72), p=0.14 vs placebo): 14 mg/dL
Changes in total HDL or total LDL particles ([2]; subjects on Compound 1): No significant changes
Time course of TG elevations ([2]; subjects on Compound 1): peaked at W1 and declined thereafter
ALT, median relative change from baseline ([3]; Compound 1 5 mg orally QD, W12): −9.8%
≥30% reduction in MRI-PDFF, % of subjects ([3]; Compound 1 5 mg orally QD, W12 (11/47)): 23%
≥15% reduction in MRE-stiffness, % of subjects ([3]; Compound 1 5 mg orally QD, W12 (19/47)): 40%
Liver stiffness by FibroScan, median relative change from baseline ([3]; Compound 1 5 mg orally QD): −8.4%
MRE-stiffness, median relative change from baseline [3, 8]: −9.6%
MRI-PDFF, median relative change from baseline [3, 8]: −13.0%
Hyaluronic acid, median relative change from baseline ([3]; Compound 1 5 mg orally QD): −0.7%
PIII-NP, median relative change from baseline ([3]; Compound 1 5 mg orally QD): −7.0%
TIMP-1, median relative change from baseline ([3]; Compound 1 5 mg orally QD): −2.9%
MRI-PDFF, differences from placebo ([3]; Compound 1 5 mg, W12): not statistically significant
Median alkaline phosphatase, change ([3]; Compound 1 5 mg, W12): unchanged
Hepatic steatosis by CAP (Controlled Attenuation Parameter) ([3]; Compound 1 20 mg and 5 mg, week 12, differences not statistically significant): Dose-dependent reductions
Tolerability ([3]; Compound 1 20 mg or 5 mg QD, 12 weeks): generally well-tolerated
ALT, median relative change from baseline ([3]; Compound 1 20 mg orally QD, W12): −20.5%
≥15% reduction in MRE-stiffness, % of subjects ([3]; Compound 1 20 mg orally QD, W12 (15/46)): 33%
≥30% reduction in MRI-PDFF, % of subjects ([3]; Compound 1 20 mg orally QD, W12 (22/46)): 48%
Liver stiffness by FibroScan, median relative change from baseline ([3]; Compound 1 20 mg orally QD): −11.1%
MRE-stiffness, median relative change from baseline [3, 9]: −5.5%
MRI-PDFF, median relative change from baseline [3, 9]: −28.9%
Hyaluronic acid, median relative change from baseline ([3]; Compound 1 20 mg orally QD): −6.9%
PIII-NP, median relative change from baseline ([3]; Compound 1 20 mg orally QD): −13.9%
TIMP-1, median relative change from baseline ([3]; Compound 1 20 mg orally QD): −7.9%
Liver stiffness by FibroScan, M probe, change from baseline to week 12 between treatment groups ([3]; Compound 1 20 mg, 5 mg, placebo): no differences
Changes in liver stiffness by MRE [3, 10]: did not differ between groups
Changes in other liver biochemistry tests and the composite ELF score among the treatment groups [3, 10]: not significantly different
MRI-PDFF compared with placebo ([3]; Compound 1 20 mg, W12): statistically and clinically significant decrease
Serum levels of TIMP-1 ([3]; Compound 1 20 mg, W12, p=0.022 vs placebo): significant reductions
Median alkaline phosphatase, increase ([3]; Compound 1 20 mg, W12, p≤0.001 vs placebo): 9%
